Experimental data as given in US12024499B2, “Muscarinic agonists” (Heptares Therapeutics Limited, priority 2015, dated 2024).

Legend:
Format in all cases: cell-based
[1] = target: T1, human muscarinic M4 receptor (Homo sapiens, UniProt P08173); assay: Alphascreen Surefire phospho-ERK1/2 assay, M4; conditions: for EC50: CHO cells stably expressing human M4, agonist 5 min, 37° C., read-out: pEC50 M4 (converted); for Emax: CHO, read-out: % Emax cf. ACh, M4
T1 construct: expressed in transfected cells
T1 sequence (P08173 1-479): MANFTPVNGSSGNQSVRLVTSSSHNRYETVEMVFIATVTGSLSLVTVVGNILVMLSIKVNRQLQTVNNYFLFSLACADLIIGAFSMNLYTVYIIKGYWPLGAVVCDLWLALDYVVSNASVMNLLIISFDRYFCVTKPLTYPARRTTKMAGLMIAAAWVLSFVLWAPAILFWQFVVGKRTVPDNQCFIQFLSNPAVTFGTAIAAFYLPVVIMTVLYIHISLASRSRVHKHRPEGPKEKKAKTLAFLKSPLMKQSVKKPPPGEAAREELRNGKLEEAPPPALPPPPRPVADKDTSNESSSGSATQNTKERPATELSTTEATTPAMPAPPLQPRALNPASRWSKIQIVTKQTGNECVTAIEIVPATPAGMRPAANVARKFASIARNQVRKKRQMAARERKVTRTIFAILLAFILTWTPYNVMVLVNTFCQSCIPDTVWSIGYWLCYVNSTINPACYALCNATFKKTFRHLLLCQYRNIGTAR
Experimental: (§1) ERK1/2 phosphorylation is a downstream consequence of both Gq/11 and Gi/o protein coupled receptor activation, making it highly suitable for the assessment of M1, M3 (Gq/11 coupled) and M2, M4 receptors (Gi/o coupled), rather than using different assay formats for different receptor subtypes. CHO cells stably expressing the human muscarinic M1, M2, M3 or M4 receptor were plated (25K/well) onto 96-well tissue culture plates in MEM-alpha+10% dialysed FBS. Once adhered, cells were serum-starved overnight. Agonist stimulation was performed by the addition of 5 μL agonist to the cells for 5 min (37° C.). Media was removed and 50 μL of lysis buffer added. After 15 min, a 4 μL sample was transferred to 384-well plate and 7 μL of detection mixture added. Plates were incubated for 2 h with gentle agitation in the dark and then read on a PHERAstar plate reader.
(§2) pEC50 and Emax figures were calculated from the resulting data for each receptor subtype.

[2] = target: T2, human muscarinic M1 receptor (Homo sapiens, UniProt P11229); assay: Alphascreen Surefire phospho-ERK1/2 assay, M1; conditions: for EC50: CHO cells stably expressing human M1, agonist 5 min, 37° C., read-out: pEC50 M1 (converted); for Emax: CHO, read-out: % Emax cf. ACh, M1
T2 sequence (P11229 1-460): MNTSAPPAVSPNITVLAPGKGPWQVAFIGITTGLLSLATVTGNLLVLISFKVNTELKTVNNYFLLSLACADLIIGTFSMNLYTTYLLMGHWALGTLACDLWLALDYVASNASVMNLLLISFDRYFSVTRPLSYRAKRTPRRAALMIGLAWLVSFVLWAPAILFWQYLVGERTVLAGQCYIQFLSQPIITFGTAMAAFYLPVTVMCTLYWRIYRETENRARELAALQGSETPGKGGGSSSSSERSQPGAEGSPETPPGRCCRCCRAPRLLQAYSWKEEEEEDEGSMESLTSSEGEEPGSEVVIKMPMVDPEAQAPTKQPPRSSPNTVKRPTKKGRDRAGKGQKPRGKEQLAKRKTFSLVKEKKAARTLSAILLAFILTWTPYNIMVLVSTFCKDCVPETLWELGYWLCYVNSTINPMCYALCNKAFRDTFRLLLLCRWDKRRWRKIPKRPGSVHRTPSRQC
Experimental: as §1, §2

[3] = target: T3, human muscarinic M2 receptor (Homo sapiens, UniProt P08172); assay: Alphascreen Surefire phospho-ERK1/2 assay, M2; conditions: for EC50: CHO cells stably expressing human M2, agonist 5 min, 37° C., read-out: pEC50 M2 (converted); for Emax: CHO, read-out: % Emax cf. ACh, M2
T3 sequence (P08172 1-466): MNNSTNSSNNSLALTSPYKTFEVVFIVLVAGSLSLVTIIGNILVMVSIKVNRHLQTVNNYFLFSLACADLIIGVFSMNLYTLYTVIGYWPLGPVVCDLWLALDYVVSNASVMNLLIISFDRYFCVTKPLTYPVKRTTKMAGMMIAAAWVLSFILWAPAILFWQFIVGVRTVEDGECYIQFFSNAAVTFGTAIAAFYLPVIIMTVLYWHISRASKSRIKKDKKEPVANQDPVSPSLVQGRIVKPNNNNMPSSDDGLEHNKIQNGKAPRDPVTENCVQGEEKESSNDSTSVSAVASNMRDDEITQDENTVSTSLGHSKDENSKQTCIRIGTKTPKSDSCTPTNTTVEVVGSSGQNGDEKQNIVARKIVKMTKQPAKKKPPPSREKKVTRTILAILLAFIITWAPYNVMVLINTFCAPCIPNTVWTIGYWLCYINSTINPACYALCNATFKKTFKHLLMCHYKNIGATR
Experimental: as §1, §2

[4] = target: T4, human muscarinic M3 receptor (Homo sapiens, UniProt P20309); assay: Alphascreen Surefire phospho-ERK1/2 assay, M3; conditions: for EC50: CHO cells stably expressing human M3, agonist 5 min, 37° C., read-out: pEC50 M3 (converted); for Emax: CHO, read-out: % Emax cf. ACh, M3
T4 construct: expressed in transfected cells
T4 sequence (P20309 whole entry): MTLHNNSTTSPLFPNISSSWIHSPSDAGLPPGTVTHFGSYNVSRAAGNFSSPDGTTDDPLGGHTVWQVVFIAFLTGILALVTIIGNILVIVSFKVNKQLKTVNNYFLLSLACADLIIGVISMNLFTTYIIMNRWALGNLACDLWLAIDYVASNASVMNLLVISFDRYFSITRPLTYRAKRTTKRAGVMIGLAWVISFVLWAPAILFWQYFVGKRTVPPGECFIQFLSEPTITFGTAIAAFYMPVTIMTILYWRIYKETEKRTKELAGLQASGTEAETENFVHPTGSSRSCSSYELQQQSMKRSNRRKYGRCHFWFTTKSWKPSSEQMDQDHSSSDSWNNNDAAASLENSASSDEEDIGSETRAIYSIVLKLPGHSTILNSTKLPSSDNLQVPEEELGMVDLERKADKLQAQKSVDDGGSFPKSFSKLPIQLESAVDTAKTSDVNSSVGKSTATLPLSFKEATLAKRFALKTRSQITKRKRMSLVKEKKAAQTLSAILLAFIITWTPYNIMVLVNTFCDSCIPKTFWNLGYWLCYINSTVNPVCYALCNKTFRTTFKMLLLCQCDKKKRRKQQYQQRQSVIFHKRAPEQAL
Experimental: as §1, §2

SMILES	EC50 [1]	Emax [1]	EC50 [2]	Emax [2]	EC50 [3]	Emax [3]	EC50 [4]	Emax [4]
CCOC(=O)N1CCC2(CC(N3CCC(N4CC(F)(F)C4)CC3)C2)C1 (single isomer, unassigned) [Example 1-1, Ethyl 2-[4-(3,3-difluoroazetidin-1-yl)piperidin-1-yl]-6-azaspiro[3.4]octane-6-carboxylate]	0.158 µM	26%	1 µM	24%				
CCOC(=O)N1CCC2(CC(N3CCC(N4CC[C@@H]4C(=O)OC)CC3)C2)C1 (single isomer, unassigned) [Example 1-2]	0.0631 µM	67%	> 20 µM	37%	> 20 µM	7%	> 20 µM	7%
CCOC(=O)N1CCC2(CC(N3CCC(N4CCC4=O)CC3)C2)C1 (single isomer, unassigned) [Example 1-3, Ethyl 2-[4-(2-oxoazetidin-1-yl)piperidin-1-yl]-6-azaspiro[3.4]octane-6-carboxylate]	0.2 µM	23%	> 20 µM	20%				
CCOC(=O)N1CCC2(CC(N3CCC(N4C(=O)C[C@@H]4C)CC3)C2)C1 (single isomer, unassigned) [Example 1-4]	0.158 µM	41%	> 20 µM	18%				
CCOC(=O)N1CCC2(CC(N3CCC(N4C(=O)C[C@@H]4CC)CC3)C2)C1 (single isomer, unassigned) [Example 1-5]	0.1 µM	56%	0.316 µM	69%	> 20 µM	37%	> 20 µM	0%
CCOC(=O)N1CCC2(CC(N3CCC(N4C(=O)C[C@H]4C)CC3)C2)C1 (single isomer, unassigned) [Example 1-6]	0.251 µM	74%	> 20 µM	13%				
CCOC(=O)N1CCC2(CC(N3CCC(N4C(=O)C[C@H]4CC)CC3)C2)C1 (single isomer, unassigned) [Example 1-7]	0.0794 µM	101%	0.794 µM	94%	0.501 µM	26%	> 20 µM	21%
